58 molecules from ChEMBL document CHEMBL1155018, “Toward prediction of alkane/water partition coefficients” (J Med Chem, 2008) can be followed below.

One data set can be described thus: in vivo. The settings on record: Wistar, rat.
For data set [1] the following is noted: hexadecane/water, pH 7.4.
Data set [2] can be described thus: physchem. The settings on record: octanol/water, pH 7.4.
A short description of data set [3]: physchem. The settings on record: octanol/water.
For data set [4] the following is noted: hexadecane/water.
Description: Hexadecane-water partition coefficient, log P of the compound
The conditions of data set [5]: octanol/water.

SMILES strings stand for the structures.
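Wherever Kp is given: drug concentration in brain divided by that in blood, measured in Wistar rats.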

Regarding `CN1Cc2c(-c3noc(C(C)(O)CO)n3)ncn2-c2cccc(Cl)c2C1=O` (configuration not stated), the Kp in the data set “in vivo” (brain) was 0.0151.

As to `CN1Cc2c(-c3noc(C(C)(C)O)n3)ncn2-c2cccc(Cl)c2C1=O`, the Kp in the data set “in vivo” (brain / blood) was 0.0457.

On to `CN1C(=O)c2ccccc2C1=O`, for which the logD is -0.15 in data set [1] and 1.32 in the data set “physchem [2]”.

Regarding `Cn1c(=O)ccc2ccccc21`, the figures for the logD (in data set [1]; in “physchem [2]”) were -0.15 and 1.52, respectively.

Turning to `CC(C)c1nc(-c2ncn3c2CN(C)C(=O)c2c(Cl)cccc2-3)no1`, the Kp in the data set “in vivo” (brain / blood) was 0.501.

Consider `[O-][S+](c1ccccc1)c1ccccc1`, for which the logD was 0.66 in data set [1] and 2.1 in the data set “physchem [2]”.

Regarding `Cn1cnc2ccccc21`, the logD is -0.89 in data set [1] and 1.34 in the data set “physchem [2]”.

As for `O=C1CCCN1Cc1ccccc1`, the pH-dependent lipophilicity (logD) is -0.6 in data set [1] and 1.32 in the data set “physchem [2]”.

For `CN1C(=O)Cc2ccccc21`, the logD in data set [1] came out at 0; in “physchem [2]”, 1.25.

Regarding `O=C1Cc2ccccc2CO1`, the figures for the logD (in data set [1]; in “physchem [2]”) were -0.29 and 1.02, respectively.

As for `Clc1ccc(Cn2ccnn2)cc1`, the logP in the data set “physchem [3]” worked out at 1.78.

Regarding `c1cnc2cccnc2c1`, the logD was -0.49 in data set [1] and 0.79 in the data set “physchem [2]”.

As to `CN(C)C(=O)N(C)c1ccccc1`, the logD in data set [1] amounted to 0.16; in “physchem [2]”, 1.6.

`CN(C)C(=O)c1ccccc1`: the values for the logD (in data set [1]; in the data set “physchem [2]”) were -0.98 and 0.71, respectively.

Turning to `O=c1ccccn1Cc1cccc(Cl)c1`, the logD in data set [1] was -0.03; in the data set “physchem [2]”, 2.09.

Regarding `Clc1ccc2ncncc2c1`, in the data set “physchem [3]”, the logP came to 1.78.

For the molecule `c1ccc2c(c1)COC2`, the values for the logD (in data set [1]; in the data set “physchem [2]”) were 1.36 and 1.74, respectively.

Regarding `CN(C)C(=O)Cc1ccc(Br)cc1`, the logD in data set [1] worked out at 0.07; in “physchem [2]”, 1.83.

For `Cn1c(=O)n(C)c2ccccc21`, the values for the logD (in data set [1]; in the data set “physchem [2]”) were 0.53 and 1.33, respectively.

Molecule `Cc1cnccn1` returned a lipophilicity (logP) in the data set “physchem [3]” of 0.23.

For `CC(=O)N(C)c1ccccc1`, the logD in data set [1] was -0.54; in the data set “physchem [2]” it was 1.

Consider `Cc1ccc2occc(=O)c2c1`, for which the logD in data set [1] came to 0.56; in “physchem [2]”, 1.9.

Turning to `[O-][S+](CC1CCCCC1)c1ccccc1` (configuration not stated), the logD in data set [1] amounted to 1.23; in the data set “physchem [2]” it was 2.81.

Consider `CCN1C(=O)Cc2ccccc21`, for which the logD in data set [1] was 0.49; in the data set “physchem [2]”, 1.69.

Take `COc1ccc(C#N)cc1`: the logD in data set [1] worked out at 0.92; in the data set “physchem [2]” it was 1.75.

Molecule `O=C1CCCN1CCCCN1CCN(c2cc(C(F)(F)F)ccn2)CC1` had a Kp in the data set “in vivo” (brain) of 1.45.

As for `Cc1cccc2c1Oc1ccccc1[C@@]1(O)CCN(C)C[C@@H]21`, in the data set “in vivo” (brain), the Kp was 6.61.

With `Clc1ccc2c(c1)[C@H]1CNC[C@@H]1c1ccccc1O2`, the Kp in “in vivo” (brain / blood) is 2.45.

As to `Cc1ccc2c(c1)c(C)cc(C)[n+]2[O-]`, the logD in data set [1] was -0.57; in the data set “physchem [2]” it was 1.71.

Regarding `CN1Cc2ccccc2C1=O`, the logD in data set [1] is -1.07; in “physchem [2]”, 0.87.

Consider `O=c1ccccn1Cc1ccccc1`, for which the logD in data set [1] was -0.72; in the data set “physchem [2]”, 1.37.

On to `O=c1ccn(Cc2ccc(-c3ccccc3)cc2)cc1`, for which the logD is -1.76 in data set [1] and 2.47 in “physchem [2]”.

For the molecule `O=c1ccccn1Cc1ccc(C(F)(F)F)cc1`, the logD in data set [1] is 0.18; in the data set “physchem [2]”, 2.47.

For the molecule `CCn1c(C)cc(=O)c2ccc(Cl)cc21`, the logD in data set [1] is -1.4; in “physchem [2]” it was 1.8.

For `Clc1ccc2cc[nH]c2c1`, the logD in data set [1] came to 1.36; in the data set “physchem [2]”, 3.22.

Turning to `Cc1cccc2c1Oc1ccccc1[C@@]1(O)CCNC[C@@H]21`, the Kp in “in vivo” (brain) is 3.31.

With `Clc1ccccn1` [2-CHLOROPYRIDINE], the logD in data set [1] is 0.52; in “physchem [2]”, 1.23.

Consider `O=S(=O)(c1ccccc1)c1ccccc1` [(PHENYLSULFONYL)BENZENE], for which the results for the logD (in data set [1]; in “physchem [2]”) were 0.75 and 2.41, respectively.

On to `CC(=O)c1ccccc1` [ACETOPHENONE], for which the logD in data set [1] turned out to be 0.96; in “physchem [2]”, 1.61. In data set [4], this molecule had a logP of 1.12.

On to `CN(C)CCC=C1c2ccccc2CCc2ccccc21` [AMITRIPTYLINE], for which, in “in vivo” (brain / blood), the Kp was 9.55.

Regarding `COc1ccccc1` [ANISOLE], the logD in data set [1] worked out at 1.9; in “physchem [2]” it was 2.15. For the same molecule, the logP in data set [4] worked out at 2.13.

On to `CN1C[C@@H]2c3ccccc3Oc3ccc(Cl)cc3[C@H]2C1` [ASENAPINE], for which, in “in vivo” (brain), the Kp was 10.7.

Take `N#Cc1ccccc1` [BENZONITRILE]: the logD in data set [1] is 0.91; in the data set “physchem [2]”, 1.56. This molecule displayed a logP in data set [4] of 0.99.

As to `c1ccc2nocc2c1` [BENZO[C]ISOXAZOLE], the logD in data set [1] was found to be 0.75; in “physchem [2]” it was 1.49.

`c1ccc(Cn2ccnc2)cc1` [BENZYLIMIDAZOLE]: the log distribution coefficient (logD) was -0.83 in data set [1] and 1.55 in “physchem [2]”.

With `c1ccc2nnccc2c1` [CINNOLINE], the logP in the data set “physchem [3]” is 1.01.

In “in vivo” (brain), `CNCCCN1c2ccccc2CCc2ccccc21` [DESIPRAMINE] returned a Kp of 10.

In the data set “in vivo” (brain / blood), `CN(C)CCCN1c2ccccc2CCc2ccccc21` [IMIPRAMINE] showed a Kp of 11.2.

Regarding `c1ccc2[nH]ccc2c1` [INDOLE], the figures for the logD (in data set [1]; in “physchem [2]”) were 0.66 and 2.24, respectively.

Take `N#Cc1ccncc1` [ISONICOTINONITRILE]: in data set [5], the logP was found to be 0.46.

Take `c1ccc2cnccc2c1` [ISOQUINOLINE]: the figures for the logD (in data set [1]; in the data set “physchem [2]”) were 0.98 and 2.09, respectively.

Consider `CN1CCN2c3ncccc3Cc3ccccc3C2C1` (configuration not stated) [MIRTAZAPINE], for which the Kp in the data set “in vivo” (brain) was 3.39.

On to `O=[N+]([O-])c1ccccc1` [NITROBENZENE], for which the logD in the data set “physchem [2]” turned out to be 1.83.

In the data set “in vivo” (brain / blood), `Cc1nc2n(c(=O)c1CCN1CCC(c3noc4cc(F)ccc34)CC1)CCCC2O` (configuration not stated) [PALIPERIDONE] had a Kp of 0.214.

Consider `COc1ccc(CN(CCN(C)C)c2ccccn2)cc1` [PYRILAMINE], for which the Kp in the data set “in vivo” (brain) was 3.09.

`c1ccc2ncccc2c1` [QUINOLINE] had a logD in the data set “physchem [2]” of 1.99.

Turning to `c1ccc2nccnc2c1` [QUINOXALINE], the figures for the logD (in data set [1]; in the data set “physchem [2]”) were 0.47 and 1.31, respectively.

For the molecule `Cc1nc2n(c(=O)c1CCN1CCC(c3noc4cc(F)ccc34)CC1)CCCC2` [RISPERIDONE], the Kp in the data set “in vivo” (brain) is 0.955.

In general, logD refers to the decadic logarithm of the distribution of all forms, ionised or not, between an organic phase and buffer at a given pH. The low end stands for a more hydrophilic compound, the high end for a more lipophilic compound. In general, logP refers to the decadic logarithm of the partition coefficient of the neutral form, usually between octanol and water. Read a high logP as higher lipophilicity.
